According to publication PMC8745253, “Affinity and Specificity for Binding to Glycosaminoglycans Can Be Tuned by Adapting Peptide Length and Sequence” (International Journal of Molecular Sciences, 2021):

Experiments:
[1] = cited from earlier work
Description: (§1) Chemokines are small proteins that have two main interaction partners: chemokine receptors, which are G protein-coupled receptors (GPCRs), and GAGs. The binding of chemokines to GAGs enables the formation of a chemokine concentration gradient, which is indispensable for leukocyte migration. Interfering with the interactions between GAGs and chemokines can be a useful therapeutic strategy to inhibit inflammation. The chemokine CXCL9 binds to CXCR3 and is characterized by a highly positively charged COOH-terminal tail. A CXCL9-derived peptide, CXCL9(74-103), consisting ...

[2] = tested on: cellular GAGs on HS+ (pgsB-618 clone 19) and HS- (pgsB-618 clone 16) CHO cells; experiment: Binding of TAMRA-labeled peptides to cellular GAGs, flow cytometry; assay type: cell-based, Chinese hamster; conditions: 0.24 nmol TAMRA-labeled peptide; for Binding to HS+ CHO cells compared with HS- CHO cells (MFI): 1 × 10^5 cells, 30 min on ice, Wilcoxon test; for Binding capacity for cellular GAGs (MFI ([HS+]–[HS−])), comparison of the peptides: n ≥ 7, Mann–Whitney test
Experimental: The binding of four different TAMRA-labeled peptides (KKAK-2mer, KKQK-3mer, KKKQQK-2mer and CXCL9(74-103)) to cellular GAGs on pgsB-618 clone 16 (HS^− CHO cells) and pgsB-618 clone 19 cells (HS^+ CHO cells) was assessed using flow cytometry. Since each peptide contains exactly one TAMRA-group connected to the N-terminus, this allows us to quantify the peptides by their fluorescence or absorbance.
(§2) First, the medium was discarded, the cells were washed with PBS and were detached with trypsin/EDTA at 37 °C. Subsequently, the cells were resuspended in medium and left at room temperature for 45 min, and afterwards on ice for 15 min. After centrifugation at 177 g and 4 °C for 7 min, the pellet was resuspended in PBS and the cells were kept on ice. For each condition, 1 × 10^5 cells in 100 μL PBS were used and 4.7% (v/v) FcR blocking reagent and 0.06% (v/v) Zombie Aqua fixable viability dye were added to the cells. Following incubation in the dark at room temperature for 20 min, a wash step with flow cytometry buffer was performed. Afterwards, 0.24 nmol TAMRA-labeled peptide was added to the cells. After incubation in the dark on ice for 30 min, a wash step with flow cytometry buffer was performed and, subsequently, the cells were fixed with 0.4% (v/v) formaldehyde in flow cytometry buffer and kept at 4 °C. Flow cytometric analysis was performed within the following 24 h using a BD LSRFortessa X-20 flow cytometer (BD Biosciences; Franklin Lakes, NJ, USA), and the results were analyzed using FlowJo software (BD Biosciences).
(§3) Flow cytometry data (Figure 7C and Figure S2) are represented as median. […] In the next step, either a Mann–Whitney test (for unpaired data) or a Wilcoxon test (for paired data) was used to compare the groups. Statistical analysis was performed using GraphPad Prism 8.3.0 software (GraphPad Software; San Diego, CA, USA).

[3] = tested on: cellular GAGs on HS+ and HS- CHO cells; experiment: Binding of TAMRA-labeled peptides to cellular GAGs in the presence of added soluble GAGs, flow cytometry; assay type: cell-based, Chinese hamster; conditions: versus no GAG, Kruskal–Wallis test, n ≥ 6; for Effect of added soluble HA on binding of the peptide to cellular GAGs (MFI ([HS+]–[HS−])): 0.24 nmol peptide with 0.03-3 μg HA (70–120 kDa); for Effect of added soluble HS on binding of the peptide to cellular GAGs (MFI ([HS+]–[HS−])): 0.24 nmol peptide with 0.03-3 μg HS; for Effect of added soluble heparin on binding of the peptide to cellular GAGs (MFI ([HS+]–[HS−])): 0.24 nmol peptide with 0.03-3 μg heparin
Experimental: as §2
Similarly, the binding of three TAMRA-labeled peptides (KKQK-3mer, KKKQQK-2mer and CXCL9(74-103)) to cellular GAGs on pgsB-618 clone 16 (HS^− CHO cells) and pgsB-618 clone 19 cells (HS^+ CHO cells) in the presence of added GAGs was assessed using flow cytometry. In this experiment, different doses (0.03, 0.1, 0.3, 1 or 3 μg) of heparin (heparin low in calcium; Iduron; Cheshire, UK), HS (GAG HS01 BN1; Iduron; Cheshire, UK) or HA (70–120 kDa; HA sodium salt 96144; Sigma-Aldrich; St. Louis, MO, USA) were added to the cells, simultaneously with 0.24 nmol of TAMRA-labeled peptide (vide supra).
as §3

CXCR3 = conditions: cited from earlier work
Description: as §1

[4] = cited from earlier work; remark: listed apart in the source
Description: No significant difference in affinity for HS was detected between the long (KKKQQK) and short (KKQK) GAG-binding motifs (Figure 2). […] This is consistent with the report that peptides containing multiple copies of the GAG-binding motifs XBBXBX and XBBBXXBX had higher affinity for heparin [30]. It is important to point out that CXCL9(74-103) had the ...

| Compound | Binding to HS+ CHO cells compared with HS- CHO cells (MFI) [2] | Binding capacity for cellular GAGs (MFI ([HS+]–[HS−])), comparison of the peptides [2] | Effect of added soluble HA on binding of the peptide to cellular GAGs (MFI ([HS+]–[HS−])) [3] | Effect of added soluble HS on binding of the peptide to cellular GAGs (MFI ([HS+]–[HS−])) [3] | Effect of added soluble heparin on binding of the peptide to cellular GAGs (MFI ([HS+]–[HS−])) [3] | further results |
| --- | --- | --- | --- | --- | --- | --- |
| CC(=O)NC(CCCNC(=N)N)C(N)=O (stereo not drawn) [acetyl-Arg-amide] |  |  |  |  |  | Tighter binding to heparin than the corresponding acetyl-Lys-amide [1]: approximately 2.5 times |
| * KKAKASASKKAKTT [KKAK-2mer] | bound significantly better to HS^+ CHO cells | lowest |  |  |  |  |
| * KKKQKNGKKHQKKKVLKVRKSQRSRQKKTT [CXCL9(74-103), chemokine-derived peptide, the 30 COOH-terminal amino acids of the chemokine CXCL9, TAMRA-labeled] | bound significantly better to HS^+ CHO cells | significantly higher (p < 0.0001) compared with that of the three other peptides | no significant differences | statistically significant reduction of binding | statistically significant reduction of binding | Binding to and signaling through CXCR3 (CXCR3): lacks the capacity to bind to, and signal through, CXCR3 |
| * KKKQQKQSQSKKKQQKTT [KKKQQK-2mer] | bound significantly better to HS^+ CHO cells | significantly higher (p < 0.05) in comparison with the binding capacity of the KKAK-2mer | no significant differences | no significant differences | no significant differences |  |
| * KKQKQSQSKKQKQSQSKKQKTT [KKQK-3mer] | bound significantly better to HS^+ CHO cells | significantly higher (p < 0.05) in comparison with the binding capacity of the KKAK-2mer | no significant differences | no significant differences | no significant differences |  |
| AAARRARAAAARAKA [modified serglycin peptide in which Ala residues replaced all non-basic amino acids] |  |  |  |  |  | Decrease in heparin-binding affinity compared with native peptide YPARRARYQWVRCKP ([4]; Ala residues replaced all non-basic amino acids): 350 fold |
| YPARRARYQWVRCKP |  |  |  |  |  | Heparin-binding affinity ([4]; fragment of native mouse serglycin core protein with BBXB motif): significant heparin-binding affinity |
